Experiment [1] deals with Streptococcus pneumoniae ATCC 6301. Briefly: In vitro antibacterial activity. It counts as cell-based. Particulars: ATCC6301. How it is done:
Compounds of this invention were tested for in vitro activity against Streptococcus pneumoniae ATCC 6301, an erythromycin-sensitive strain, using methods known in the microbiological art.

For experiment [2], the target named is T1, motilin receptor (Homo sapiens, UniProt O43193). Briefly: Motilin receptor desensitization, cell-based assay. Particulars: for Activity retained following exposure, 1 μM Compound: motilin receptor activity retained after exposure to 1 μM test compound; for Activity retained following exposure, 10 μM Compound: motilin receptor activity retained after exposure to 10 μM test compound. How it is done:
Compounds were tested for motilin receptor desensitization using the cell-based assay described in Carreras et al., U.S. 2002/0192709 A1 (2002), “Methods for Evaluating Therapeutic Efficacy,” incorporated herein by reference. Briefly, the test measures the extent of motilin receptor activity retained after exposure to varying amounts (1 and 10 μM) of test compound.

Experiment [3] deals with T1, motilin receptor. Briefly: Motilin agonist activity (activation of the motilin receptor). The experiment is classed as cell-based. As to the method:
Compounds of this invention were tested for motilin agonist activity, following the procedure of Carreras et al., Anal. Biochem., 300, 146-151 (2002), the disclosure of which is incorporated herein by reference.

Molecules are shown by their SMILES. In brackets after ≈: the same amount, converted by molar mass. Read-outs that look alike come from different tables or passages of the source.

In general, MIC refers to the least concentration at which growth counts as inhibited. For orientation: EC50 means the concentration that produces a half-maximal response. Lower therefore signals higher potency in that assay.

T1 sequence (O43193 whole entry): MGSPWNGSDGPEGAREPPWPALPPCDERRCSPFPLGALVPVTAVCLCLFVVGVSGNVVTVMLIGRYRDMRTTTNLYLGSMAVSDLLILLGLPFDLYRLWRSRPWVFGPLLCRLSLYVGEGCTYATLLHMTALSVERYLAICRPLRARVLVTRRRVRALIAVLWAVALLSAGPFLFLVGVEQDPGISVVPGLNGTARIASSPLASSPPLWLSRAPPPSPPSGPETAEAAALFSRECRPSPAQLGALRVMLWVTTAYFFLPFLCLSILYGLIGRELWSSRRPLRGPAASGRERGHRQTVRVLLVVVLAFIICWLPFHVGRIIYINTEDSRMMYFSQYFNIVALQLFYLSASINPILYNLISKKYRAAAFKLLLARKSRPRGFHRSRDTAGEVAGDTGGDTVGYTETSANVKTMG

As to `CC[C@H]1OC(=O)[C@H](C)[C@@H](O[C@H]2C[C@@](C)(OC)C[C@H](C)O2)[C@H](C)[C@@H](O[C@@H]2O[C@H](C)C[C@H](N(C)C)[C@H]2O)[C@@]2(C)C[C@@H](C)[C@H](O2)[C@H](C)C[C@H]1C` [Compound IVa], the MIC in experiment [1] (Streptococcus pneumoniae) came out at 25 µg/mL (≈ 37.3 µM). Besides, on motilin receptor [2], the “Activity retained following exposure, 1 μM Compound” value is 24 % of original and the “Activity retained following exposure, 10 μM Compound” value is 7 % of original. On motilin receptor [3], this compound gave an EC50 of 42 nM.
On the same counts, the results for `CC[C@H]1OC(=O)[C@H](C)[C@@H](O[C@H]2C[C@@](C)(OC)[C@@H](O)[C@H](C)O2)[C@H](C)[C@@H](O[C@@H]2O[C@H](C)C[C@H](N(C)C)[C@H]2O)[C@@]2(C)C[C@@H](C)[C@H](O2)[C@H](C)C[C@H]1C` [Compound IVb] are 100 µg/mL (≈ 146 µM), 57 % of original, 49 % of original and 230 nM.
For `CC[C@H]1OC(=O)[C@H](C)[C@@H](O[C@H]2C[C@@](C)(OC)C[C@H](C)O2)[C@H](C)[C@@H](O[C@@H]2O[C@H](C)C[C@H](N(C)C(C)C)[C@H]2O)[C@@]2(C)C[C@@H](C)[C@H](O2)[C@H](C)C[C@H]1C` [Compound IVc], in that order: 50 µg/mL (≈ 71.6 µM), 9 % of original, 5 % of original and 13 nM.
For the compound `CC[C@H]1OC(=O)[C@H](C)[C@@H](O[C@H]2C[C@@](C)(OC)C[C@H](C)O2)[C@H](C)[C@@H](O[C@@H]2O[C@H](C)C[C@H](N(C)CCF)[C@H]2O)[C@@]2(C)C[C@@H](C)[C@H](O2)[C@H](C)C[C@H]1C` [Compound IVd], the MIC in experiment [1] (Streptococcus pneumoniae ATCC 6301, erythromycin-sensitive strain, read-out: MIC) was > 100 µg/mL. Moreover, at motilin receptor [2], the “Activity retained following exposure, 1 μM Compound” value is listed as 7 % of original and the “Activity retained following exposure, 10 μM Compound” value is listed as 5 % of original. On motilin receptor [3], this compound registered an EC50 of 45 nM.

For the origin of these results see US20050113319A1, “11-Deoxy-6,9-ether erythromycin compounds” (priority 2003, published 2005).
